Literature values as cited in patent publication US11427542B2, “Compounds for treatment of cardiac arrhythmias and heart failure” (Elex Biotech, Inc., priority 2018, dated 2022).

Test system: R176Q/+ mice
Conditions: cardiac pacing, versus placebo-treated

## CCCCNc1ccc(C(=O)OCCN(CC)CC)c(OC)c1 [Compound 1]
  arrhythmic development (bidirectional VT / sustained polymorphic VT) following pacing: protected from arrhythmic development following pacing
